From PMC6287539 (International Journal for Parasitology: Drugs and Drug …, 2018)

Assays:
[1] = biological target: T1, Hco-ACC-2 (homomeric channel) (Haemonchus contortus, UniProt A0A219KWM7); assay: two-electrode voltage clamp in Xenopus oocytes, dose-response; assay type: cell-based
T1 sequence (A0A219KWM7 18-443): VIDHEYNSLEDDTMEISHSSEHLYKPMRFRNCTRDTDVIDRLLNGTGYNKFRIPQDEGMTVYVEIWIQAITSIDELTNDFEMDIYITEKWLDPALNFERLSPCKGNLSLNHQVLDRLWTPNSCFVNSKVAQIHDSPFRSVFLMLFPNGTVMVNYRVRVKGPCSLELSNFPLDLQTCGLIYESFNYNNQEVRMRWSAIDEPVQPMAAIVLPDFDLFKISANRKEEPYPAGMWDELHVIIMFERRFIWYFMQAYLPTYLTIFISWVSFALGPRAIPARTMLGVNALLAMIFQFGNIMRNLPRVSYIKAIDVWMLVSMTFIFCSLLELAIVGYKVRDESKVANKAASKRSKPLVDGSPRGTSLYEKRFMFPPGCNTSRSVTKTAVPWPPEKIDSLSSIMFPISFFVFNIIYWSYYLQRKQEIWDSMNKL

[2] = biological target: T2, Hco-ACC-1 (in the Hco-ACC-1/2 heteromeric channel) (Haemonchus contortus, UniProt A0A219KVV5+A0A219KWM7); assay: as above; assay type: cell-based
T2 sequence (A0A219KVV5 23-459): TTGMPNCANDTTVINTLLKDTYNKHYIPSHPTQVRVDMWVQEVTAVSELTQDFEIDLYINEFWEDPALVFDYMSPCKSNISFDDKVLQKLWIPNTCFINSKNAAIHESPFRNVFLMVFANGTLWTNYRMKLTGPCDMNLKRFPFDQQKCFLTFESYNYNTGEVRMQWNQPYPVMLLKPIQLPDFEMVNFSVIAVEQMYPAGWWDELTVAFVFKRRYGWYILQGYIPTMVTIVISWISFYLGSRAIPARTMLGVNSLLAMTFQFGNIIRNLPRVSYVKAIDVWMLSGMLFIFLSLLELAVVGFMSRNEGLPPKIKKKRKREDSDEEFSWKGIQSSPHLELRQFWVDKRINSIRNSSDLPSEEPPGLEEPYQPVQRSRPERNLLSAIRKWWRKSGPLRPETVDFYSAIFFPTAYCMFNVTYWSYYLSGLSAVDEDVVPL
T2 sequence (A0A219KWM7 18-443): T1 sequence (A0A219KWM7 18-443)

Structure (SMILES): C[N+](C)(C)CCOC(N)=O [carbachol]
- EC50 [1]: 46 ± 2 µM
- EC50 [2]: 32.5 ± 3 µM
